According to US8003686B2, “Aryl derivatives of curcumin, demethoxycurcumin, bisdemethoxycurcumin or curcuminisoxazolide and their use as animal feed additives” (DSM IP Assets B.V., priority 2005, dated 2011):

Experiments:
Assay in all cases: Inhibition of bacterial growth in broth culture, CFU counting
Format in all cases: cell-based
[1] = test system: Enterococcus faecalis (F); settings: 1000 μM; Enterococcus faecalis from pig gastrointestinal content; counting after 24 hours at 37° C.
Description: (§1) The following bacteria were isolated from pig gastrointestinal content: Escherichia coli 0.94 (A), Escherichia coli 0.96 (B), Klebsiella pneumoniae (C), Salmonella typhimurium pF3127 (D), Salmonella enteritidis pF1338 (E), Enterococcus faecalis (F), Enterococcus faecium (G), Staphylococcus hyicus (H), Lactobacillus salivarius (I) and Lactobacillus acidophilus 3 (J). Their identities were confirmed by microscopic examination after gram staining and biochemical testing using the appropriate API system. Test strains were maintained in tryptic soy broth (named BTS; […] Overnight cultures of the test organisms were diluted in tryptic soy broth to the final concentration used for inoculation of the assay. Pure bacteria were counted on tryptic soy agar (Merck, Darmstadt, Germany) after aerobical incubation at 37° C. during 24 hours. […] Sterilized nutrient broth was prepared using tryptic soy broth (Merck, Darmstadt, Germany), and 4.4 ml of it was added to each test tube. 500 μl of each of the dilutions and 100 μl of bacteria, diluted to the appropriate inoculum size (2×10^4 to 10^5 CFU/ml), was added to the test tubes. […] Becton […], France). The final concentration of each derivative was […]. The tubes and the microtiter plates were incubated during 24 to 48 hours (depending of the bacteria tested) at 37° C. and under agitation. Inhibition of growth was determined by bacterial counting after 24 hours of incubation. […] All bacterial counts were realized with two replicate plates. In general, each assay was performed in two replicates. The reduction of bacterial growth was determined by subtracting the number of the bacteria of the test culture after 24 hours from the number of bacteria of the control culture. The colonies developed after incubation were counted, and the inhibitory effect was calculated according to Rico-Munoz and Davidson, J.

[2] = test system: Escherichia coli 0.94 (A); settings: 1000 μM; Escherichia coli 0.94 from pig gastrointestinal content; counting after 24 hours at 37° C.
Description: as §1

[3] = test system: Escherichia coli 0.96 (B); settings: 1000 μM; Escherichia coli 0.96 from pig gastrointestinal content; counting after 24 hours at 37° C.
Description: as §1

[4] = test system: Klebsiella pneumoniae (C); settings: 1000 μM; Klebsiella pneumoniae from pig gastrointestinal content; counting after 24 hours at 37° C.
Description: as §1

[5] = test system: Lactobacillus salivarius (I); settings: 1000 μM; Lactobacillus salivarius from pig gastrointestinal content; counting after 24 hours at 37° C.
Description: as §1

[6] = test system: Salmonella enteritidis pF1338 (E); settings: 1000 μM; Salmonella enteritidis pF1338 from pig gastrointestinal content; counting after 24 hours at 37° C.
Description: as §1

[7] = test system: Salmonella typhimurium pF3127 (D); settings: 1000 μM; Salmonella typhimurium pF3127 from pig gastrointestinal content; counting after 24 hours at 37° C.
Description: as §1

[8] = test system: Staphylococcus hyicus (H); settings: 1000 μM; Staphylococcus hyicus from pig gastrointestinal content; counting after 24 hours at 37° C.
Description: as §1

[9] = test system: Enterococcus faecium (G); settings: 1000 μM; Enterococcus faecium from pig gastrointestinal content; counting after 24 hours at 37° C.
Description: as §1

Substance | Percentage of inhibition of growth of bacterial strain F [1] | Percentage of inhibition of growth of bacterial strain A [2] | Percentage of inhibition of growth of bacterial strain B [3] | Percentage of inhibition of growth of bacterial strain C [4] | Percentage of inhibition of growth of bacterial strain I [5] | Percentage of inhibition of growth of bacterial strain E [6] | Percentage of inhibition of growth of bacterial strain D [7] | Percentage of inhibition of growth of bacterial strain H [8] | Percentage of inhibition of growth of bacterial strain G [9]
curcumindipalmitate [Example 1] | 38 ± 34% | 62 ± 0.3% | 59 ± 17% | 12 ± 4% | 2% | 14 ± 13% | 33 ± 29% | −4 ± 42% | 
Curcumin diphosphate ammonium salt [derivative 2] |  | 35 ± 41% | 47 ± 28% | 25 ± 5% | 64 ± 50% | 30 ± 34% | 40 ± 72% | 2 ± 7% | 13 ± 6%
